According to patent publication US9884116B2, “FGF modulation of in vivo antibody production and humoral immunity” (priority 2010, dated 2018):

Test system: splenic B cells
Assay: Proliferation of B cells in vitro (anti-CD40 and anti-IgM stimulated)
Assay type: cell-based, mouse
Protocol: Adult wild type mice (C57B16) were sacrificed and spleens were rapidly removed. After dissociation into single cell suspension and red blood cell lysis with NH4Cl, splenocytes were isolated by centrifugation over a Ficoll gradient. Subsequently, B lymphocytes were purified by one of two methods, complement mediated lysis or CD43 negative selection. For complement lysis, cells were incubated with anti-Thy 1 antibody (J1J), anti-L3T4 (GK 1.5), anti-Ly2 (TIB105, ATCC) and rabbit complement (Sigma) for two hours at 37°. CD43 negative selection was carried out using anti-CD43 (Serotec) and Miltenyi microbeads according to the manufacturer's instructions. Cells were cultured in RPMI 1640, 10% fetal calf serum for three days in the presence of anti-CD40 (mAb 1C10, generous gift of Hsiou-Chi Liou, Weill Medical College of Cornell University) and anti-IgM Fab′2 fragments (Jackson Immunoresearch). FGF1 (100 ng/ml) and Heparin (10 ug/ml) were added, and the number of cells was determined in triplicate compared to Heparin alone using a Coulter Counter (Coulter) or trypan blue exclusion with the same results. […]
FGF signaling inhibits splenic B cell proliferation. […] The values represent the percent decrease in total cell number observed with addition of 100 ng/ml FGF1 (determined in triplicate) as compared to heparin (10 ug/ml) alone. x=mean+/− s.e.m. […]

“FGF1: fibroblast growth factor ligand added exogenously to B cells; stimulates the widest range of FGF receptors” was tested, and the “% Decrease in total cell number, mean +/- s.e.m.” value (mean of 6 experiments, 100 ng/ml FGF1 plus heparin vs heparin alone, 3 days, one sample t test p<0.01) was 19.7 +/− 2.8% and the B cell number (purified spleen B cells with CD40 and BCR signaling activated, incubated in the presence of FGF-1) was “inhibited”.
